Tests used:
ALK = target: T1, ALK (Homo sapiens, UniProt Q9HC35+Q9UM73); experiment: Western blot of ALK phosphorylation state; format: cell-based; conditions: NCI-H2228 lysates, IC50 concentrations, 24 h
T1 construct: Western blot detection of the ALK phosphorylation state in lysates of NCI-H2228 cells exposed to the tested compounds; endogenous in cells; host or cells: NCI-H2228
Procedure: Whereas the signals of pALK and pMET are decreased in the presence of the tested compounds, the overall amount of ALK and MET is not markedly changed.
NCI-H2228 cells were seeded in 6-well plates at a density of 2 × 10^5 cells/well and incubated overnight. […] The cells were then harvested and lysed using RIPA lysis buffer supplemented with protease and phosphatase inhibitors as recommended by the manufacturer. Protein extracts were resolved with SDS-PAGE, transferred to a PVDF membrane, and the respective proteins were detected with specific antibodies (anti-phosphoALK, anti-ALK, anti-phosphoMET, anti-MET, and anti-GADPH) and HRP-conjugated secondary antibodies. The signals were obtained with SignalFire ECL Reagent and recorded with an Amersham680 reader.

CT26 and NCI-H2228 cells = experiment: Extracellular HMGB1 (ELISA); format: cell-based; conditions: IC50 concentrations, 24 h
Procedure: The amount of HMGB1 in the medium was determined using an enzyme-linked immunosorbent assay (ELISA).
CT26 and NCI-H2228 cells were seeded in 48-well plates at a density of 5 × 10^4 cells/well and grown overnight. […] Aliquots of the supernatants were then withdrawn and processed using the HMGB1 Express ELISA kit (TECAN) according to the manufacturer’s instructions. The final absorbance, proportional to the HMGB1 amount, was read at 420 nm using a multimode SPARK reader (TECAN).

T1 sequence (Q9HC35+Q9UM73 fused): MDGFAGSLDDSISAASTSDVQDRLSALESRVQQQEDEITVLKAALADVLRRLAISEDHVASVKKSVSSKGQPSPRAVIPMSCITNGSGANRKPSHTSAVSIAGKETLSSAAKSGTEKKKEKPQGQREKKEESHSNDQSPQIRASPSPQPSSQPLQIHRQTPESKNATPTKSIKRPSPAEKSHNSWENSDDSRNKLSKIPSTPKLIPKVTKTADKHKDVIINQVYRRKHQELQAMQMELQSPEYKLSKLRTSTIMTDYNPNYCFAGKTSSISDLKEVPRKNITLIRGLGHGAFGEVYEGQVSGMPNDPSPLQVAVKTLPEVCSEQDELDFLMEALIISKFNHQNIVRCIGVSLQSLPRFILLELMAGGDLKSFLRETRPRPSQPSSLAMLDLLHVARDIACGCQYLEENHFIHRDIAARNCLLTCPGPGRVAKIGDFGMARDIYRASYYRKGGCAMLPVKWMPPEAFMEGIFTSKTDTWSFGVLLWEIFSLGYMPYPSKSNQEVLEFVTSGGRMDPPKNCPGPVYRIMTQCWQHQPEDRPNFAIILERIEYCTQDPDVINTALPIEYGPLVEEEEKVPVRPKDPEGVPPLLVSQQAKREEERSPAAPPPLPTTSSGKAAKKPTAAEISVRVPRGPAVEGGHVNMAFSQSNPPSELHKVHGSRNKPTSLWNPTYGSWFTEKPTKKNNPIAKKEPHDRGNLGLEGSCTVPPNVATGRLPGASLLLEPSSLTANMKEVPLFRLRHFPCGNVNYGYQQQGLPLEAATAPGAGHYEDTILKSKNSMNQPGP

SMILES | phosphorylation of ALK (ALK) | HMGB1 externalization relative to nontreated control (CT26 and NCI-H2228 cells) [fold]
N.N.[Cl][Pt][Cl] [cisPt, cisplatin, reference compound] | no visible effect | 2
Cc1cc(Nc2ncc(Cl)c(Nc3ccccc3S(=O)(=O)C(C)C)n2)c(OC(C)C)cc1C1CCN(C(=O)[O][Pt]([Cl])([Cl])[O]C(=O)CCCc2ccccc2)CC1.N.N [compound 7, ctc-[Pt(NH3)2(ceritinib)(PhB)Cl2]] | inhibit the phosphorylation | 
